Test results reported in patent publication US20120010272A1, “RNA Interference Mediated Inhibition of Apoptosis Signal-Regulating Kinase 1 (ASK1) Gene Expression Using Short Interfering Nucleic Acid (siNA)” (Merck Sharp & Dohme Corp., priority 2009, published 2012).

Tests used:
Type in all cases: cell-based
ASK1 mRNA [1] = assay: ASK1 mRNA knock-down by siNA in mouse Hepa1-6 cells (RNAiMax transfection, Taqman RT-PCR); conditions: 10 nM siNA, 24 hrs post-transfection, vs non-targeting control, GAPDH-normalized, mean ± S.D., two experiments
Experimental: Hepal-6 (murine; ATCC cat #CRL-1830): Cells were cultured at 37° C. in the presence of 5% CO2 and grown in Dulbecco's modified Eagle's medium (DMEM) with 4 mM L-glutamine adjusted to contain 1.5 g/L sodium bicarbonate and 4.5 g/L glucose and supplemented with 10% of fetal bovine serum, 100 μg/mL of streptomycin, and 100 U/mL penicillin.
(§1) Cells were plated in all wells of a tissue-culture treated, 96-well plate at a final count of 5000 cells/well (A549 cell line) and 3,500 cells/well (Hepal-6 cell line) in 100 μL of the appropriate culture media. The cells were cultured for 24 hours after plating at 37° C. in the presence of 5% CO2.
(§2) After 24 hours, complexes containing siNA and RNAiMax were created as follows: A solution of RNAiMax diluted 33-fold in OPTI-MEM was prepared. In parallel, solutions of the siNAs for testing were prepared to a final concentration of 120 nM in OPTI-MEM. After incubation of RNAiMax/OPTI-MEM solution at room temperature for 5 min, an equal volume of the siRNA solution and the RNAiMax solution were added together for each of the siNAs.
(§3) This solution was incubated at room temperature for 20 minutes. After incubation, 20 uL of the solution was added to each of the relevant wells. The final concentration of siNA in each well was 10 nM and the final volume of RNAiMax in each well was 0.3 ul.
(§4) The time of incubation with the RNAiMax-siNA complexes was 24 hours and there was no change in media between transfection and harvesting, unless otherwise indicated.
(§5) RNA was extracted from a 96-well plate using the TaqMan® Gene Expression Cells-to-CT™ Kit (Cat #4399002) with a modified protocol. Briefly, a 60 uL (1 plate) or 110 uL (2 plates) of the Lysis Solution with DNase I was dispensed into each well of the Lysis Buffer Plate (twin.tec full skirt plate). The lysis buffer and stop plates were stored at 4° C. until the cells were washed.
(§6) The plate was spun at 1100 rpm for 5 minutes. The culture medium was aspirated and discarded from the wells of the culture plate. The lysis was performed automatically using a BioMek FX instrument and method. After the Biomek method was completed, the lysis plate was incubated for 2 min. at room temperature. The lysis plate can be stored for 2 hours at 4° C., or at −20° C. or −80° C. for two months.
(§7) Each well of the reverse transcription plate required 10 uL of 2× reverse transcriptase Buffer, 1 uL of 20× reverse transcription enzyme and 2 uL of nuclease-free water. The reverse transcription master mix was prepared by mixing 2× reverse transcription buffer, 20× reverse transcription enzyme mix, and nuclease-free water. 13 uL of the reverse transcription master mix was dispensed into each well of the reverse transcription plate (semi-skirted). A separate reverse transcription plate was prepared for each cell plate. The plate was loaded onto a Biomek NX or Biomek FX Dual-96 and the Biomek method was run. The program is programmed to automatically added 7 uL of lysate from the cell lysis procedure described above into each well of the reverse transcription plate. The plate is sealed and spun on a centrifuge (1000 rpm for 30 seconds) to settle the contents to the bottom of the reverse transcription plate. The plate is placed in a thermocycler at 37° C. for 60 min, 95° C. for 5 min, and 4° C. until the plate is removed from the thermocycler. Upon removal, if not used immediately, the plate was frozen at −20° C.
(§8) A series of probes and primers were used to detect the various mRNA transcripts of the genes of ASK1, ASK2, and GAPDH in human cell lines and ASK1 and GAPDH in mouse cell lines. All Taqman probes and primers for the experiments were supplied as pre-validated sets by ABI (see Table 2).
(§9) The assays were performed on an ABI 7900 instrument, according to the manufacturer's instructions. A TaqMan Gene Expression Master Mix (provided in the Cells-to-CT™, Applied Biosystems, Cat #4399002) was used. […]

[2] = test system: mRNA transcript of human ASK2; assay: ASK2 specificity screen: effect of ASK1 siNAs on human ASK2 mRNA in A549 cells; conditions: 1 nM siNA, three independent experiments, mean ± standard deviation
Experimental: A549 cells were plated in all wells of a tissue-culture treated, 96-well plate at a final count of 5,000 cells/well in 100 μL of appropriate culture media. Cells were cultured for 24 hours after plating at 37° C. in the presence of 5% CO2.
as §2, with “follows.” for “follows:”, “siRNAs” for “siNAs”, “12” for “120”, “siNA” for “siRNA”, “siNAs. […] This solution was incubated at room temperature for 20 minutes. After incubation, 20 uL of the solution was added to each of the relevant wells. The final concentration of siNA in each well was 1 nM and the final volume of RNAiMax in each well was 0.3 uL. The time of incubation with the RNAiMax-siNA complexes was 24 hours.” for “siNAs.”
as §5, §6, §7, §8
The assays were performed on an ABI 7900 instrument, according to the manufacturer's instructions. A TaqMan Gene Expression Master Mix (provided in the Cells-to-CT™, Applied Biosystems, Cat #4399002) was used. The PCR reactions were carried out at 50° C. for 2 min, 95° C. for 10 min followed by 40 cycles at 95° C. for 15 secs and 60° C. for 1 min.
The expression level of the gene of interest and % knock-down was calculated using Comparative Ct method:
ΔΔCt=ΔCt(Target siRNA)−ΔCt(NTC)
Relative expression level=2^−ΔΔCt
The non-targeting control siRNA was, unless otherwise indicated, chosen as the value against which to calculate the % knock-down, because it is the most relevant control.
The specificity of these siNAs was also assessed. […]

ASK1 mRNA [3] = assay: ASK1 mRNA knock-down by siNA in human A549 cells (RNAiMax transfection, Taqman RT-PCR); conditions: for % KD Human: 10 nM siNA, 24 hrs post-transfection, vs non-targeting control, GAPDH-normalized, mean ± S.D.; for % KD Human / % KD ASK-1 10 nM: two experiments; for % KD ASK-1 mRNA at 10 nM: mean ± S.D. (Table 5); for % KD ASK-1 10 nM: mean ± standard deviation (Table 6)
Experimental: A549 (human; ATCC cat #CCL-185): Cells were cultured at 37° C. in the presence of 5% CO2 and grown in Ham's F12K medium with 2 mM L-glutamine adjusted to contain 1.5 g/L sodium bicarbonate and supplemented with fetal bovine serum at a final concentration of 10%, 100 μg/mL of streptomycin, and 100 U/mL penicillin.
as §1, §2, §3, §4, §5, §6, §7, §8, §9

ASK1 mRNA [4] = assay: as above; conditions: 12 concentrations 0.083 fM to 30 nM, mean ± S.D.

25387-DC: siNA duplex, sense B cAccAGAAAuAAuAGAuAA TTB, antisense UUAucuAuuAuuucuGGuGUU (SEQ ID NO: 55/56), human ASK1 target site 2901 (sense CACCAGAAAUAAUAGAUAATT; antisense UUAUCUAUUAUUUCUGGUGUU; chemistry not fully specified)
% KD Mouse (ASK1 mRNA [1]): −17 ± 11%
% KD ASK-2 1 nM [2]: 4 ± 11%
% KD Human (ASK1 mRNA [3]): 87 ± 2%
% KD ASK-1 mRNA at 10 nM (ASK1 mRNA [3]): 87 ± 2%
% KD ASK-1 10 nM (ASK1 mRNA [3]): 87 ± 2%
IC50 (ASK1 mRNA [4]): 20 ± 3 pM

25376-DC: siNA duplex, sense B GcAccAGAAAuAAuAGAuA TTB, antisense UAUcuAuuAuuucuGGuGcUU (SEQ ID NO: 33/34), human ASK1 target site 2900 (sense GCACCAGAAAUAAUAGAUATT; antisense UAUCUAUUAUUUCUGGUGCUU; chemistry not fully specified)
% KD Mouse (ASK1 mRNA [1]): 14 ± 18%
% KD ASK-2 1 nM [2]: 5 ± 12%
% KD Human (ASK1 mRNA [3]): 89 ± 1%
% KD ASK-1 mRNA at 10 nM (ASK1 mRNA [3]): 89 ± 1%
% KD ASK-1 10 nM (ASK1 mRNA [3]): 89 ± 1%
IC50 (ASK1 mRNA [4]): 14 ± 4 pM

25385-DC: siNA duplex, sense B GGAAGGcuAucAuuGAcuu TTB, antisense AAGucAAuGAuAGccuuccUU (SEQ ID NO: 51/52), human ASK1 target site 4449 (sense GGAAGGCUAUCAUUGACUUTT; antisense AAGUCAAUGAUAGCCUUCCUU; chemistry not fully specified)
% KD Mouse (ASK1 mRNA [1]): 75 ± 15%
% KD ASK-2 1 nM [2]: 2 ± 11%
% KD Human (ASK1 mRNA [3]): 90 ± 0%
% KD ASK-1 mRNA at 10 nM (ASK1 mRNA [3]): 90 ± 0%
% KD ASK-1 10 nM (ASK1 mRNA [3]): 90 ± 0%
IC50 (ASK1 mRNA [4]): 10 ± 3 pM

25393-DC: siNA duplex, sense B GGuucAAAAAGGcAuuuGA TTB, antisense UCAAAuGccuuuuuGAAccUU (SEQ ID NO: 67/68), human ASK1 target site 1614 (sense GGUUCAAAAAGGCAUUUGATT; antisense UCAAAUGCCUUUUUGAACCUU; chemistry not fully specified)
% KD Mouse (ASK1 mRNA [1]): 77 ± 2%
% KD Human (ASK1 mRNA [3]): 88 ± 5%

25384-DC: siNA duplex, sense B GGAAcAGccuucAAAucAA TTB, antisense UUGAuuuGAAGGcuGuuccUU (SEQ ID NO: 49/50), human ASK1 target site 3958 (sense GGAACAGCCUUCAAAUCAATT; antisense UUGAUUUGAAGGCUGUUCCUU; chemistry not fully specified)
% KD Mouse (ASK1 mRNA [1]): 61 ± 0%
% KD Human (ASK1 mRNA [3]): 82 ± 1%

25391-DC: siNA duplex, sense B cAGAGGccAAGGcAuucAu TTB, antisense AUGAAuGccuuGGccucuGUU (SEQ ID NO: 63/64), human ASK1 target site 3087 (sense CAGAGGCCAAGGCAUUCAUTT; antisense AUGAAUGCCUUGGCCUCUGUU; chemistry not fully specified)
% KD Mouse (ASK1 mRNA [1]): −3 ± 4%
% KD Human (ASK1 mRNA [3]): 11 ± 38%

25377-DC: siNA duplex, sense B GGAAGAccAAGAcAAAAuu TTB, antisense AAUuuuGucuuGGucuuccUU (SEQ ID NO: 35/36), human ASK1 target site 3538 (sense GGAAGACCAAGACAAAAUUTT; antisense AAUUUUGUCUUGGUCUUCCUU; chemistry not fully specified)
% KD Mouse (ASK1 mRNA [1]): 10 ± 2%
% KD Human (ASK1 mRNA [3]): 80 ± 3%

25374-DC: siNA duplex, sense B GcAcuGGGAAcuAcAccuu TTB, antisense AAGGuGuAGuucccAGuGcUU (SEQ ID NO: 29/30), human ASK1 target site 978 (sense GCACUGGGAACUACACCUUTT; antisense AAGGUGUAGUUCCCAGUGCUU; chemistry not fully specified)
% KD Mouse (ASK1 mRNA [1]): 43 ± 12%
% KD Human (ASK1 mRNA [3]): 19 ± 4%

25395-DC: siNA duplex, sense B cuGAuGAcAAGAAAGGuAu TTB, antisense AUAccuuucuuGucAucAGUU (SEQ ID NO: 71/72), human ASK1 target site 2139 (sense CUGAUGACAAGAAAGGUAUTT; antisense AUACCUUUCUUGUCAUCAGUU; chemistry not fully specified)
% KD Mouse (ASK1 mRNA [1]): 6 ± 15%
% KD Human (ASK1 mRNA [3]): 32 ± 12%

25400-DC: siNA duplex, sense B ccAcuGAccGAAAAAucAu TTB, antisense AUGAuuuuucGGucAGuGGUU (SEQ ID NO: 81/82), human ASK1 target site 3660 (sense CCACUGACCGAAAAAUCAUTT; antisense AUGAUUUUUCGGUCAGUGGUU; chemistry not fully specified)
% KD Mouse (ASK1 mRNA [1]): 74 ± 1%
% KD Human (ASK1 mRNA [3]): 86 ± 4%
